According to US10913757B2, “Hydroxycinnamic derivatives, methods and uses thereof” (UNIVERSIDADE DO PORTO, priority 2016, dated 2021):
“Also recorded” adds a separate entry of the source.

Key:
[1] = Iron (II) chelating properties, ferrozine assay; type: biochemical; conditions: 100 μM, EDTA=100%
Procedure: In an embodiment, AntiOxCINs iron (II) chelating properties were evaluated by the ferrozine assay using ethylenediaminetetracetic acid (EDTA) as reference.
In an embodiment, AntiOxCINs iron chelating properties were evaluated by the spectrophotometric ferrozine method performed in a multiplate reader (Powerwave XS Microplate Reader) of Bio-Tech instruments.
In an embodiment, the AntiOxCINs iron chelating properties were evaluated as follows: in each well, a solution of the test compound (100 μM) and ammonium iron (II) sulphate in ammonium acetate (20 μM) were added, incubated for 10 min and the absorbance was read at 562 nm. Then, a freshly prepared solution of ferrozine (5 mM) was added to each well (96 μM final concentration). After a new incubation at 37° C. for 10 min period, the absorbance of [Fe(ferrozine)3]^2+ complex was measured at 562 nm. Blank wells were run using DMSO instead of the test compounds. EDTA was used as a reference. All compounds were tested at a final concentration of 100 μM. The absorbance of the first reading was subtracted to the final values to abolish any absorbance due to the test compounds. Data are means±SEM of three independent experiments and are expressed as % of Fe(II) chelation (EDTA=100%).

[2] = system: rat liver mitochondria (RLM); test: AntiOxCINs uptake by energised rat liver mitochondria (TPP-selective electrode); type: in vitro ADME; conditions: FIG. 3
Procedure: In an embodiment, and as an example, mitochondrial AntiOxCINs uptake was assessed in isolated rat liver mitochondria (RLM) in response to the membrane potential. AntiOxCINs can accumulate inside mitochondria driven by the ΔΨ (FIG. 3A). Different AntiOxCINs accumulation outlines within the mitochondrial matrix have been noticed. […] However, the linear increase of AntiOxCINs lipophilicity was not directly translated into an increase in the ratio of mitochondrial matrix accumulation (FIG. 3B). The following ranking order was attained: AntiOxCIN1<AntiOxCIN2<[…]<AntiOxCIN3 (catechol series); AntiOxCIN4<AntiOxCIN7<AntiOxCIN6 (pyrogallol series) (FIG. 3C).
In an embodiment, the evaluation of AntiOxCINs functional mitochondrial toxicity profile was performed in rat liver mitochondria (RLM). RLM were prepared by tissue homogenization followed by differential centrifugations in ice-cold buffer containing 250 mM sucrose, 10 mM HEPES (pH 7.4), 1 mM EGTA, and 0.1% fat-free bovine serum albumin. After obtaining a crude mitochondrial preparation, pellets were washed twice and resuspended in washing buffer (250 mM sucrose and 10 mM HEPES, pH 7.4). The protein concentration was determined by the biuret assay using BSA as a standard.
In an embodiment, the AntiOxCINs mitochondria uptake by energized RLM was evaluated as follows: RLM (0.5 mg protein/mL) were incubated with AntiOxCINs at 37° C. under constant stirring in 1 mL of KCl medium (120 mM KCl, 10 mM HEPES, pH 7.2 and 1 mM EGTA). Five sequential 1 μM additions of each AntiOxCINs were performed to calibrate the electrode response in the presence of rotenone (1.5 μM). Then, succinate (10 mM) was added to generate AN. Valinomicin (0.2 μg/mL) was added at the end of the assay to dissipate AN. […] The mitochondrial accumulation ratio was calculated by the disappearance of AntiOxCINs from extra- to intramitochondrial medium assuming an intramitochondrial volume of 0.5 μL/mg protein and a binding correction for the mitochondrial uptake of TPP compounds.

[3] = system: rat liver mitochondria (RLM); test: Mitochondrial transmembrane electric potential (ΔΨ) of RLM, safranine fluorescence; type: biochemical
Procedure: In an embodiment, and as an example, AntiOxCINs and MitoQ toxicity effects on the mitochondrial bioenergetics, namely on RLM ΔΨ and mitochondrial respiration parameters, were measured. The […] represents the main component of the electrochemical gradient generated by mitochondrial respiration and accounts for more than 90% of the total available energy. For mitochondrial respiration assays, glutamate/malate (for complex I) and succinate (for complex II) were used as substrates. In addition, the mitochondrial oxidative phosphorylation coupling index, known as respiratory control ratio (RCR, state 3/state 4 respiration) and ADP/O index (the coupling between ATP synthesis and oxygen consumption) were also calculated. AntiOxCINs and MitoQ were tested at antioxidant-relevant concentrations, with 10 μM being the highest concentration.
In an embodiment, the evaluation of AntiOxCINs functional mitochondrial toxicity profile was performed in rat liver mitochondria (RLM). […] The protein concentration was determined by the biuret assay using BSA as a standard.
Then, 1 μM FCCP was added at the end of all experiments to depolarize mitochondria. ΔΨ was calculated using a calibration curve obtained when RLM were incubated in a K^+-free reaction medium containing 200 mM sucrose, 1 mM NaH2PO4, 10 mM Tris (pH 7.4) and 10 μM EGTA, supplemented with 0.4 μg valinomicin. […] “Repolarization” corresponded to the recovery of membrane potential after the complete phosphorylation of ADP added. Lag phase reflected the time required to phosphorylate the added ADP. […] Data are means±SEM of five independent experiments.

| SMILES | mitochondrial accumulation ratio [2] | ADP-induced depolarization (ΔΨ in - mV) ([3]; glutamate/malate, 2.5 μM) | Lag Phase ([3]; glutamate/malate, 2.5 μM) | Maximum potential (ΔΨ in - mV) ([3]; glutamate/malate, 2.5 μM) | Repolarization Potential (ΔΨ in - mV) ([3]; glutamate/malate, 2.5 μM) | ADP-induced depolarization (ΔΨ in - mV) ([3]; glutamate/malate, 5 μM) | Lag Phase ([3]; glutamate/malate, 5 μM) | Maximum potential (ΔΨ in - mV) ([3]; glutamate/malate, 5 μM) | Repolarization Potential (ΔΨ in - mV) ([3]; glutamate/malate, 5 μM) | ADP-induced depolarization (ΔΨ in - mV) ([3]; glutamate/malate, 10 μM) | Lag Phase ([3]; glutamate/malate, 10 μM) | Maximum potential (ΔΨ in - mV) ([3]; glutamate/malate, 10 μM) | Repolarization Potential (ΔΨ in - mV) ([3]; glutamate/malate, 10 μM) | ADP-induced depolarization (ΔΨ in - mV) ([3]; succinate, 2.5 μM) | Lag Phase ([3]; succinate, 2.5 μM) | Maximum potential (ΔΨ in - mV) ([3]; succinate, 2.5 μM) | Repolarization Potential (ΔΨ in - mV) ([3]; succinate, 2.5 μM) | ADP-induced depolarization (ΔΨ in - mV) ([3]; succinate, 5 μM) | Lag Phase ([3]; succinate, 5 μM) | Maximum potential (ΔΨ in - mV) ([3]; succinate, 5 μM) | other results |
| --- | --- | --- | --- | --- | --- | --- | --- | --- | --- | --- | --- | --- | --- | --- | --- | --- | --- | --- | --- | --- | --- |
| CS(=O)(=O)[O-].O=C(/C=C/c1ccc(O)c(O)c1)NCCCCCC[P+](c1ccccc1)(c1ccccc1)c1ccccc1 [AntiOxCIN2, (E)-(6-(3-(3,4-dihydroxyphenyl)prop-2-enamido)hexyl)triphenylphosphonium methanesulfonate] | approximately the same accumulation ratio | 186.2 ± 8.9 mV | 81.2 ± 7.2 s | 208.4 ± 10.1 mV | 205.1 ± 9.0 mV | 199.2 ± 13.3 mV | 79.5 ± 7.0 s | 214.8 ± 11.7 mV | 214.0 ± 12.5 mV | 193.3 ± 9.1 mV | 88.7 ± 25.1 s | 209.8 ± 9.4 mV | 202.0 ± 8.0 mV | 169.3 ± 4.0 mV | 101.2 ± 7.5 s | 190.5 ± 5.9 mV | 191.5 ± 7.5 mV | 174.9 ± 5.5 mV | 64.6 ± 19.4 s | 189.7 ± 8.0 mV | iron (II) chelation ([1]; FIG. 2): higher iron chelation activity than caffeic acid itself; Repolarization Potential (ΔΨ in - mV) ([3]; succinate, 5 μM): 189.5 ± 9.0 mV; ADP-induced depolarization (ΔΨ in - mV) ([3]; succinate, 10 μM): 178.7 ± 6.3 mV; Lag Phase ([3]; succinate, 10 μM): 46.2 ± 12.4 s; Maximum potential (ΔΨ in - mV) ([3]; succinate, 10 μM): 190.0 ± 6.3 mV; Repolarization Potential (ΔΨ in - mV) ([3]; succinate, 10 μM): 186.6 ± 7.1 mV |
| CS(=O)(=O)[O-].O=C(/C=C/c1cc(O)c(O)c(O)c1)NCCCCCC[P+](c1ccccc1)(c1ccccc1)c1ccccc1 [AntiOxCIN4, (E)-(6-(3-(3,4,5-trihydroxyphenyl)prop-2-enamido)hexyl)triphenylphosphonium methanesulfonate] | approximately the same accumulation ratio | 188.5 ± 9.6 mV | 84.7 ± 7.0 s | 214.6 ± 10.9 mV | 211.8 ± 10.1 mV | 193.8 ± 11.8 mV | 81.7 ± 6.7 s | 216.4 ± 13.1 mV | 216.1 ± 12.7 mV | 192.7 ± 14.4 mV | 65.7 ± 15.1 s | 216.8 ± 15.7 mV | 207.7 ± 15.6 mV | 171.2 ± 3.7 mV | 95.6 ± 7.5 s | 192.0 ± 4.0 mV | 192.7 ± 5.4 mV | 176.2 ± 5.0 mV | 97.8 ± 18.8 s | 197.6 ± 6.1 mV | iron (II) chelation ([1]; FIG. 2, methanesulfonate): higher iron chelation activity than caffeic acid itself; also recorded: remarkable iron-chelation property; Repolarization Potential (ΔΨ in - mV) ([3]; succinate, 5 μM): 195.4 ± 8.2 mV; ADP-induced depolarization (ΔΨ in - mV) ([3]; succinate, 10 μM): 170.3 ± 5.2 mV; Lag Phase ([3]; succinate, 10 μM): 101.4 ± 23.75 s; Maximum potential (ΔΨ in - mV) ([3]; succinate, 10 μM): 187.4 ± 8.5 mV; Repolarization Potential (ΔΨ in - mV) ([3]; succinate, 10 μM): 183.5 ± 10.5 mV |
| CS(=O)(=O)[O-].O=C(/C=C/c1cc(O)c(O)c(O)c1)NCCCCCCCCCC[P+](c1ccccc1)(c1ccccc1)c1ccccc1 [AntiOxCIN7, (E)-(10-(3-(3,4,5-trihydroxyphenyl)acrylamido)decyl)triphenylphosphonium methanesulfonate] | lower accumulation ratio | 212.2 ± 7.9 mV | 73.4 ± 8.4 s | 251.8 ± 8.7 mV | 248.3 ± 8.3 mV | 212.6 ± 3.2 mV | 71.0 ± 10.7 s | 248.1 ± 3.3 mV | 243.5 ± 5.0 mV | 197.1 ± 11.8 mV | 58.6 ± 5.4 s | 232.1 ± 9.2 mV | 212.6 ± 18.4 mV | 183.8 ± 6.0 mV | 80.0 ± 14.9 s | 205.3 ± 7.3 mV | 199.4 ± 7.1 mV | 176.2 ± 8.7 mV | 76.0 ± 9.6 s | 191.1 ± 9.0 mV | initial slight hyperpolarization ([3]; 2.5 μM): 25 mV; ΔΨ in succinate-energized mitochondria ([3]; AntiOxCIN6 above 5 μM, AntiOxCIN7 10 μM): significant decrease of ΔΨ; Repolarization Potential (ΔΨ in - mV) ([3]; succinate, 5 μM): 186.8 ± 7.5 mV; ADP-induced depolarization (ΔΨ in - mV) ([3]; succinate, 10 μM): 163.6 ± 3.2 mV; Lag Phase ([3]; succinate, 10 μM): 65.0 ± 8.7 s; Maximum potential (ΔΨ in - mV) ([3]; succinate, 10 μM): 176.9 ± 3.1 mV; Repolarization Potential (ΔΨ in - mV) ([3]; succinate, 10 μM): 171.0 ± 5.0 mV |
